Key:
Conditions in all cases: 72 h
Caco-2 [1] = experiment: cell viability relative to DMSO; higher = less toxic
Calu-3 [2] = experiment: as above
HepG2 [3] = experiment: as above
U2OS [4] = experiment: as above
Vero E6 [5] = experiment: as above
Caco-2 [6] = experiment: relative viability EC50 (midpoint between 100% and the lowest measured viability); higher = less toxic
Calu-3 [7] = experiment: as above
HepG2 [8] = experiment: as above
U2OS [9] = experiment: as above
Vero E6 [10] = experiment: as above
Caco-2 [11] = experiment: drug sensitivity score (DSS) for viability; higher = more toxic; extreme values may be limits of the assay
Calu-3 [12] = experiment: as above
HepG2 [13] = experiment: as above
U2OS [14] = experiment: as above
Vero E6 [15] = experiment: as above

| SMILES | cell viability (Caco-2 [1]; 1 nM) | cell viability (Caco-2 [1]; 10 nM) | cell viability (Caco-2 [1]; 100 nM) | cell viability (Caco-2 [1]; 1000 nM) | cell viability (Caco-2 [1]; 10000 nM) | cell viability (Calu-3 [2]; 1 nM) | cell viability (Calu-3 [2]; 10 nM) | cell viability (Calu-3 [2]; 100 nM) | cell viability (Calu-3 [2]; 1000 nM) | cell viability (Calu-3 [2]; 10000 nM) | cell viability (HepG2 [3]; 1 nM) | cell viability (HepG2 [3]; 10 nM) | cell viability (HepG2 [3]; 100 nM) | cell viability (HepG2 [3]; 1000 nM) | cell viability (HepG2 [3]; 10000 nM) | cell viability (U2OS [4]; 1 nM) | cell viability (U2OS [4]; 10 nM) | cell viability (U2OS [4]; 100 nM) | cell viability (U2OS [4]; 1000 nM) | cell viability (U2OS [4]; 10000 nM) | cell viability (Vero E6 [5]; 1 nM) | cell viability (Vero E6 [5]; 10 nM) | cell viability (Vero E6 [5]; 100 nM) | cell viability (Vero E6 [5]; 1000 nM) | cell viability (Vero E6 [5]; 10000 nM) | relative viability EC50 (Caco-2 [6]) | relative viability EC50 (Calu-3 [7]) | relative viability EC50 (HepG2 [8]) | relative viability EC50 (U2OS [9]) | relative viability EC50 (Vero E6 [10]) | drug sensitivity score (Caco-2 [11]) | drug sensitivity score (Calu-3 [12]) | drug sensitivity score (HepG2 [13]) | drug sensitivity score (U2OS [14]) | drug sensitivity score (Vero E6 [15]) |
| --- | --- | --- | --- | --- | --- | --- | --- | --- | --- | --- | --- | --- | --- | --- | --- | --- | --- | --- | --- | --- | --- | --- | --- | --- | --- | --- | --- | --- | --- | --- | --- | --- | --- | --- | --- |
| CCC(c1ccccc1)c1c(O)c2ccccc2oc1=O (stereo not given) [phenprocoumon] | 91.4% | 97.6% | 104% | 92.2% | 104% | 102% | 100% | 102% | 93.6% | 94.8% | 90.2% | 107% | 87.5% | 99.7% | 108% | 96.8% | 92.5% | 101% | 99.8% | 104% | 100% | 108% | 97.3% | 102% | 102% | > 10 µM | > 10 µM | > 10 µM | > 10 µM | > 10 µM | 0 | 0 | 0 | 0 | 0 |
| O=C1NC(=O)C(c2ccccc2)(c2ccccc2)N1 [phenytoin] | 97.9% | 95.9% | 88.6% | 101% | 99.3% | 102% | 96.1% | 97.8% | 93.5% | 84.9% | 108% | 94.8% | 99.5% | 95.8% | 101% | 97.7% | 104% | 96% | 101% | 98.9% | 96% | 103% | 100% | 98.4% | 100% | > 10 µM | > 10 µM | > 10 µM | > 10 µM | > 10 µM | 0 | 0.3 | 0 | 0 | 0 |
| CCCN(CCC)C(=O)C(CCC(=O)OCCCN1CCN(CCOC(=O)Cc2c(C)n(C(=O)c3ccc(Cl)cc3)c3ccc(OC)cc23)CC1)NC(=O)c1ccccc1 (stereo not given) [proglumetacin] | 104% | 96.5% | 99.1% | 112% | 108% | 95.5% | 96.2% | 99% | 110% | 96.6% | 91% | 114% | 112% | 85.3% | 93.9% | 95.9% | 106% | 101% | 104% | 94% | 115% | 97.2% | 98% | 91.5% | 102% | > 10 µM | > 10 µM | > 10 µM | > 10 µM | > 10 µM | 0 | 0 | 1.1 | 0 | 0 |
| Cc1ccc2c(-c3ccccc3)nc(=O)n(C(C)C)c2c1 [proquazone] | 86.9% | 89.3% | 81.4% | 103% | 99.8% | 92.9% | 94.9% | 104% | 105% | 117% | 96.7% | 109% | 102% | 102% | 110% | 99.7% | 94.5% | 96.2% | 92.4% | 105% | 93.4% | 92.4% | 89.3% | 105% | 103% | > 10 µM | > 10 µM | > 10 µM | > 10 µM | > 10 µM | 0 | 0 | 0 | 0 | 0 |
| CCOC(=O)[C@H](CCc1ccccc1)N[C@@H](C)C(=O)N1Cc2ccccc2C[C@H]1C(=O)O [quinapril] | 95.7% | 99.6% | 92.1% | 96.3% | 88.5% | 95.2% | 102% | 103% | 97% | 96.5% | 106% | 98.9% | 110% | 93.6% | 94.7% | 98.1% | 100% | 95.1% | 101% | 93.9% | 104% | 97.9% | 102% | 90.4% | 97.8% | > 10 µM | > 10 µM | > 10 µM | > 10 µM | > 10 µM | 0 | 0 | 0 | 0 | 0 |
| CCCN1CCC[C@@H]2Cc3n[nH]cc3C[C@H]21 [quinpirol-(-)] | 102% | 93.7% | 99.8% | 99.1% | 106% | 98.2% | 95.9% | 98.5% | 93.1% | 95.9% | 93.6% | 102% | 103% | 99.3% | 97.2% | 92.5% | 98.7% | 94.9% | 101% | 102% | 96.8% | 93.1% | 97.6% | 93.6% | 107% | > 10 µM | > 10 µM | > 10 µM | > 10 µM | > 10 µM | 0 | 0 | 0 | 0 | 0 |
| CC(C)(C)c1cc(NC(=O)Nc2ccc(-c3cn4c(n3)sc3cc(OCCN5CCOCC5)ccc34)cc2)no1 [quizartinib] | 103% | 105% | 103% | 90.9% | 86.5% | 104% | 97.3% | 96.6% | 93.4% | 96.1% | 85.7% | 97.5% | 90.9% | 89% | 93.3% | 101% | 97.4% | 103% | 93.6% | 103% | 99.1% | 100% | 98.8% | 104% | 99.8% | > 10 µM | > 10 µM | > 10 µM | > 10 µM | > 10 µM | 0.6 | 0 | 0 | 0 | 0 |
| CCN1CCC[C@H]1CNC(=O)c1c(OC)ccc(Br)c1OC [remoxipride] | 99.9% | 104% | 88.7% | 99.1% | 92.7% | 96.3% | 113% | 99.7% | 94.3% | 79.9% | 111% | 92% | 101% | 96.5% | 94.1% | 101% | 103% | 98% | 105% | 95.7% | 96.2% | 100% | 94.3% | 91.4% | 91.7% | > 10 µM | > 10 µM | > 10 µM | > 10 µM | > 10 µM | 0 | 1.3 | 0 | 0 | 0 |
| O=C(Nc1ccccc1)c1ccccc1O [salicylanilide] | 80% | 101% | 112% | 102% | 90.6% | 107% | 100% | 102% | 90.9% | 111% | 102% | 96.6% | 94.4% | 94.6% | 75.6% | 95.9% | 96.9% | 97.1% | 93.8% | 97.5% | 95.9% | 98.4% | 98.4% | 100% | 99.9% | > 10 µM | > 10 µM | > 10 µM | > 10 µM | > 10 µM | 0 | 0 | 1.6 | 0 | 0 |
| CC(C)[C@H](O)C(=O)N[C@@H](C)C(=O)N[C@@H]1C(=O)N(C)CCc2ccccc21 [semagacestat] | 96.2% | 107% | 98.2% | 102% | 92.6% | 95.8% | 94.8% | 94.7% | 99.8% | 98.1% | 99.7% | 105% | 114% | 96.3% | 92.1% | 99.9% | 100% | 94% | 96.8% | 92.3% | 102% | 101% | 99.9% | 100% | 99.4% | > 10 µM | > 10 µM | > 10 µM | > 10 µM | > 10 µM | 0 | 0 | 0 | 0 | 0 |
| Cc1c(S(=O)(=O)O)oc2c1C(=O)C(=O)c1c-2ccc2c1CCCC2(C)C [sodium-tanshinone-II-A-sulfonate] | 97.7% | 96.3% | 109% | 93.2% | 102% | 90.2% | 100% | 101% | 99.1% | 98.6% | 106% | 92.2% | 116% | 95.9% | 107% | 96.4% | 99.7% | 91.1% | 99.6% | 94.6% | 103% | 100% | 97.5% | 84.5% | 94.1% | > 10 µM | > 10 µM | > 10 µM | > 10 µM | > 10 µM | 0 | 0 | 0 | 0 | 1.8 |
| CCCCC(CC)CCC(CC(C)C)OS(=O)(=O)O (stereo not given) [sodium-tetradecyl-sulfate] | 100% | 83% | 95.5% | 87.6% | 104% | 98.8% | 91.9% | 103% | 102% | 97.5% | 93.1% | 96.5% | 112% | 86.2% | 98.6% | 103% | 96% | 98.3% | 104% | 99.5% | 101% | 96.1% | 99.7% | 91% | 101% | > 10 µM | > 10 µM | > 10 µM | > 10 µM | > 10 µM | 0 | 0 | 0 | 0 | 0 |
| CC(C)(N)CC12CC3CC(CC(C3)C1)C2 [somantadine] | 100% | 95.9% | 104% | 96.2% | 93.4% | 100% | 99.8% | 99.1% | 94.3% | 96.8% | 100% | 101% | 95.5% | 84.8% | 87.4% | 100% | 95.5% | 99.5% | 91.7% | 92.4% | 97.1% | 98.3% | 100% | 100% | 96.1% | > 10 µM | > 10 µM | > 10 µM | > 10 µM | > 10 µM | 0 | 0 | 1.9 | 0 | 0 |
| CCCCCCCCCCCCC/C=C/[C@@H](O)[C@@H](N)CO[P@](=O)(O)OCC[N+](C)(C)C [sphingosylphosphorylcholine] | 91% | 90.4% | 102% | 101% | 102% | 94.2% | 106% | 87.7% | 97.5% | 107% | 86% | 98.8% | 88.5% | 102% | 104% | 94% | 97% | 101% | 95.7% | 100% | 99.4% | 103% | 94.1% | 105% | 109% | > 10 µM | > 10 µM | > 10 µM | > 10 µM | > 10 µM | 0 | 0 | 0 | 0 | 0 |
